From paper PMC10126473 (Frontiers in Pharmacology, 2023)

Test: PBPK model (GastroPlus): simulation and model parameters incl. permeability surface product and scaled metabolic kinetics, human
Details: for Liver Vmax: in vivo (scaled)

For O=C(Nc1ccc([N+](=O)[O-])cc1Cl)c1cc(Cl)ccc1OC(=O)N1CCNCC1 [PDN], the “Liver Vmax” value (conversion to Nc) was 0.0004 mg/s/mg microsomes, the “Gut Vmax” value (conversion to Nc, in vivo, predicted from in vitro liver parameters) was 0.00001 mg/s/mg microsomes and the “Liver Vmax” value (conversion to Others) was 0.0164 mg/s/mg microsomes.
